pKi: −log10 of the molar value. Where a name gives a salt, the structure may show the parent alone.
Legend:
[1] = target: T1, human A3 adenosine receptors (Homo sapiens, UniProt P0DMS8); experiment: Displacement of [3H]MRE 3008F20 binding at human A3 adenosine receptors expressed in CHO cells; set-up: expressed in transfected cells; host or cells: CHO cells; conditions: for affinity for / interaction with A3 adenosine receptor subtype: discussion of Tables 2 and 3
T1 sequence (P0DMS8 1-318): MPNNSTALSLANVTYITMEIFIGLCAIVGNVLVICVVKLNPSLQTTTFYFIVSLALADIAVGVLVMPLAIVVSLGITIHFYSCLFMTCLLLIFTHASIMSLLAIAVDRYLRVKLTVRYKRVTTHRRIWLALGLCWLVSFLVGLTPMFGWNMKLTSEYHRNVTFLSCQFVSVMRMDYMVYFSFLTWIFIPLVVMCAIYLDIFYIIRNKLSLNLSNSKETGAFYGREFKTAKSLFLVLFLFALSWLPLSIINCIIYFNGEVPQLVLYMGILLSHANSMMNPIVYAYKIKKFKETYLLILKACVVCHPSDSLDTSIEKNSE

[2] = target: T2, human A1 adenosine receptors (Homo sapiens, UniProt P30542); experiment: Displacement of [3H]DPCPX binding at human A1 adenosine receptors expressed in CHO cells
T2 construct: expressed in transfected cells; host or cells: CHO cells
T2 sequence (P30542 1-326): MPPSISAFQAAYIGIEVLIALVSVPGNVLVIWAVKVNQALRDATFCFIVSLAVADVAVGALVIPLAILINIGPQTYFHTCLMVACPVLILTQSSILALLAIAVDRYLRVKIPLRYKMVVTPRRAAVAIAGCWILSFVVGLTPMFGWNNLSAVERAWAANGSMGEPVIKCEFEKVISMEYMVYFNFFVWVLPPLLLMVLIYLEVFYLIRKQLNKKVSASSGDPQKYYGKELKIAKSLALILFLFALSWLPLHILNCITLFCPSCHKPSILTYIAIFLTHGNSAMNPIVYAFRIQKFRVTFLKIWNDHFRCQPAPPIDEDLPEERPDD

[3] = target: T3, human A2B adenosine receptors (Homo sapiens, UniProt P29275); experiment: Displacement of [3H]DPCPX binding at human A2B adenosine receptors expressed in HEK-293 cells
T3 construct: expressed in transfected cells; host or cells: HEK-293 cells
T3 sequence (P29275 1-332): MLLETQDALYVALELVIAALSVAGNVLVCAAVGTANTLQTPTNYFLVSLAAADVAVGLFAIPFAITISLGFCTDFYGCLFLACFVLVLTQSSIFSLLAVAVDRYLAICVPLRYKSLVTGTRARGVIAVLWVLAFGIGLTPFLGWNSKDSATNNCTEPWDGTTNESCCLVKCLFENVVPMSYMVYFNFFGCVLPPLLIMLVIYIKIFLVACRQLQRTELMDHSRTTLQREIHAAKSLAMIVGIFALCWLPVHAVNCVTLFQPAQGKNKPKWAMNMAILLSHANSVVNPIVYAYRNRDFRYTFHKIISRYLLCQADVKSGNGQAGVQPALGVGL

[4] = target: T4, human A2A adenosine receptors (Homo sapiens, UniProt P29274); experiment: Displacement of [3H]SCH58261 binding at human A2A adenosine receptors expressed in CHO cells; conditions: for pKi: CHO cells; for affinity for A2A adenosine receptor subtype / selectivity for A2A versus the other adenosine receptor subtypes: in words; for affinity for A2A adenosine receptor subtype: discussion of Tables 2 and 3
T4 construct: expressed in transfected cells; host or cells: CHO cells

[5] = Table 2, footnote b: [3H]MRE 3008F20, human A3, CHO cells
[6] = Table 2, footnote b: [3H]DPCPX, human A1
[7] = Table 2, footnote b: [3H]SCH58261, human A2A
[8] = Table 3: [3H]DPCPX, human A1, CHO cells
[9] = Table 3: [3H]DPCPX, HEK-293 cells
[10] = Table 3: [3H]SCH58261, human A2A
[11] = Table 3: [3H]MRE 3008F20, human A3, CHO cells

T4 sequence (P29274 whole entry): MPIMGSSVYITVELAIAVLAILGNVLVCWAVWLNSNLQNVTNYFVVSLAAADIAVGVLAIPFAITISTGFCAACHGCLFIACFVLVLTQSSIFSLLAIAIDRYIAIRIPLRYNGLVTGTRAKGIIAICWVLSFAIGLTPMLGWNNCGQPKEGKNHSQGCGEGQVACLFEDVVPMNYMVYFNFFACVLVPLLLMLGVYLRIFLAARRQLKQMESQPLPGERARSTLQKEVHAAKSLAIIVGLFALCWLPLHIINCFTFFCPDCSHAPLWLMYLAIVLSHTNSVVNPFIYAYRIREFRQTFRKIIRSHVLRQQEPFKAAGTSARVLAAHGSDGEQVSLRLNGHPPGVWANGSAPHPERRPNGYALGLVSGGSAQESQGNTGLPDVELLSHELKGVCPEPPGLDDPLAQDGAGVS

pKi [2, 8] | pKi [3, 9] | pKi [4, 10] | affinity for A2A adenosine receptor subtype [4] | pKi [1, 11] | Structure (SMILES) | also measured
 |  |  |  |  | CCOc1ccccc1-c1nc2c3cnn(CCc4ccccc4)c3nc(N)n2n1 [Compound 5c, 2-(2-Ethoxy-phenyl)-7-phenethyl-7H-pyrazolo[4,3-e][1,2,4]triazolo[1,5-c]pyrimidin-5-ylamine] | pKi [1, 5]: 6.46; selectivity for A3 versus the other adenosine receptor subtypes ([1]; in words): complete selectivity; affinity for / interaction with A3 adenosine receptor subtype ([1]; in words): poor affinity; pKi [2, 6]: < 6.00; pKi ([3]; Table 2, footnote b: [3H]DPCPX): < 6.00; pKi [4, 7]: < 6.00
6.76 | 7.51 | 7.66 | decrease of A2A interaction |  | CSc1c2c(nc(N)n3nc(-c4ccco4)nc23)nn1CCCc1ccccc1 [Compound 43, 2-Furan-2-yl-9-methylsulfanyl-8-(3-phenyl-propyl)-8H-pyrazolo[4,3-e][1,2,4]triazolo[1,5-c]pyrimidin-5-ylamine] | 
7.15 | 7.52 | 8.39 |  | 6.96 | CSc1c2c(nc(NC(=O)Cc3ccc4c(c3)OCO4)n3nc(-c4ccco4)nc23)nn1C [Compound 49, 2-Benzo[1,3]dioxol-5-yl-N-(2-furan-2-yl-8-methyl-9-methylsulfanyl-8H-pyrazolo[4,3-e][1,2,4]triazolo[1,5-c]pyrimidin-5-yl)-acetamide] | affinity for / interaction with A3 adenosine receptor subtype ([1]; in words): decreased
 |  |  |  |  | Nc1nc2c(cnn2CCc2ccccc2)c2nc(-c3ccc(OCC(=O)O)cc3)nn12 [Compound 7, [4-(5-Amino-7-phenethyl-7H-pyrazolo[4,3-e][1,2,4]triazolo[1,5-c]pyrimidin-2-yl)-phenoxy]-acetic acid] | pKi [1, 5]: < 6.00; pKi [2, 6]: < 6.00; pKi ([3]; Table 2, footnote b: [3H]DPCPX): < 6.00; pKi [4, 7]: < 6.00
7.10 | 7.35 | 7.82 | maintains A2A affinity |  | COc1ccc(CC(=O)Nc2nc3nn(C)c(SC)c3c3nc(-c4ccco4)nn23)cc1 [Compound 47, N-(2-Furan-2-yl-8-methyl-9-methylsulfanyl-8H-pyrazolo[4,3-e][1,2,4]triazolo[1,5-c]pyrimidin-5-yl)-2-(4-methoxy-phenyl)-acetamide] | affinity for / interaction with A3 adenosine receptor subtype ([1]; in words): decreased
 |  |  |  |  | CCOC(=O)COc1ccc(-c2nc3c4cnn(CCc5ccccc5)c4nc(N)n3n2)cc1 [Compound 6, [4-(5-Amino-7-phenethyl-7H-pyrazolo[4,3-e][1,2,4]triazolo[1,5-c]pyrimidin-2-yl)-phenoxy]-acetic acid ethyl ester] | pKi [1, 5]: < 6.00; pKi [2, 6]: < 6.00; pKi ([3]; Table 2, footnote b: [3H]DPCPX): < 6.00; pKi [4, 7]: < 6.00
 |  |  |  |  | Nc1nc2c(cnn2CCc2ccccc2)c2nc(-c3ccc(OCC(=O)Nc4ccc(I)cc4)cc3)nn12 [Compound 8, 2-[4-(5-Amino-7-phenethyl-7H-pyrazolo[4,3-e][1,2,4]triazolo[1,5-c]pyrimidin-2-yl)-phenoxy]-N-(4-iodo-phenyl)-acetamide] | pKi [1, 5]: < 6.00; pKi [2, 6]: < 6.00; pKi ([3]; Table 2, footnote b: [3H]DPCPX): < 6.00; pKi [4, 7]: < 6.00
7.30 | 7.09 |  | good affinity | 6.65 | CCNc1c2c(nc(N)n3nc(-c4ccco4)nc23)nn1C [Compound 38, N9-Ethyl-2-furan-2-yl-8-methyl-8H-pyrazolo[4,3-e][1,2,4]triazolo[1,5-c]pyrimidiine-5,9-diamine] | 
8.05 | 7.16 | 8.68 | maintains the A2A affinity | 6.65 | CCCSc1c2c(nc(N)n3nc(-c4ccco4)nc23)nn1C [Compound 42, 2-Furan-2-yl-8-methyl-9-propylsulfanyl-8H-pyrazolo[4,3-e][1,2,4]triazolo[1,5-c]pyrimidin-5-ylamine] | selectivity for A2A versus the other adenosine receptor subtypes [4]: increases the selectivity
6.18 |  |  | useless | 6.51 | Cn1nc2nc(N)n3nc(-c4ccco4)nc3c2c1Nc1ccc(O)cc1 [Compound 52, 4-(5-Amino-2-furan-2-yl-8-methyl-8H-pyrazolo[4,3-e][1,2,4]triazolo[1,5-c]pyrimidin-9-ylamino)-phenol] | 
8.08 | 7.99 | 8.92 | good affinity | 7.46 | CSc1c2c(nc(N)n3nc(-c4ccco4)nc23)nn1C [Compound 41, 2-Furan-2-yl-8-methyl-9-methylsulfanyl-8H-pyrazolo[4,3-e][1,2,4]triazolo[1,5-c]pyrimidin-5-ylamine] | selectivity for A2A versus the other adenosine receptor subtypes [4]: low selectivity
 |  |  |  |  | CN1CCN(c2c3c(nc(N)n4nc(-c5ccco5)nc34)nn2C)CC1 [Compound 54, 2-Furan-2-yl-8-methyl-9-(4-methyl-piperazin-1-yl)-8H-pyrazolo[4,3-e][1,2,4]triazolo[1,5-c]pyrimidin-5-ylamine dihydrochloride salt] | pKi ([2]; Table 3: [3H]DPCPX, human A1, CHO cells, dihydrochloride salt): 7.32; pKi ([3]; Table 3: [3H]DPCPX, HEK-293 cells, dihydrochloride salt): 7.92; pKi ([4]; Table 3: [3H]SCH58261, human A2A, dihydrochloride salt): 6.87
7.15 | 7.62 | 8.51 |  | 6.67 | COc1ccc(NC(=O)Nc2nc3nn(C)c(SC)c3c3nc(-c4ccco4)nn23)cc1 [Compound 46, 1-(2-Furan-2-yl-8-methyl-9-methylsulfanyl-8H-pyrazolo[4,3-e][1,2,4]triazolo[1,5-c]pyrimidin-5-yl)-3-(4-methoxy-phenyl)-urea] | affinity for / interaction with A3 adenosine receptor subtype ([1]; in words): decreased
7.52 | 7.46 | 6.81 | useless |  | CN1CCN(c2c3c(nc(N)n4nc(-c5ccco5)nc34)nn2C)CC1 [Compound 40, 2-Furan-2-yl-8-methyl-9-(4-methyl-piperazin-1-yl)-8H-pyrazolo[4,3-e][1,2,4]triazolo[1,5-c]pyrimidin-5-ylamine] | 
6.82 | 7.43 |  | decrease of A2A affinity | 7.77 | CCNc1c2c(nc(NC(=O)Nc3ccc(OC)cc3)n3nc(-c4ccco4)nc23)nn1C [Compound 44, 1-(9-Ethylamino-2-furan-2-yl-8-methyl-8H-pyrazolo[4,3-e][1,2,4]triazolo[1,5-c]pyrimidin-5-yl)-3-(4-methoxy-phenyl)-urea] | affinity for / interaction with A3 adenosine receptor subtype ([1]; in words): good increase in A3 affinity
 |  |  |  |  | CCNc1c2c(nc(N)n3nc(-c4ccco4)nc23)nn1C [Compound 53, N9-Ethyl-2-furan-2-yl-8-methyl-8H-pyrazolo[4,3-e][1,2,4]triazolo[1,5-c]pyrimidine-5,9-diamine hydrochloride salt] | pKi ([1]; Table 3: [3H]MRE 3008F20, human A3, CHO cells, hydrochloride salt): 7.60; pKi ([2]; Table 3: [3H]DPCPX, human A1, CHO cells, hydrochloride salt): 7.39; pKi ([3]; Table 3: [3H]DPCPX, HEK-293 cells, hydrochloride salt): 7.44
6.87 | 7.19 | 7.21 |  | 6.74 | CCNc1c2c(nc(NC(=O)Cc3ccc4c(c3)OCO4)n3nc(-c4ccco4)nc23)nn1C [Compound 50, 2-Benzo[1,3]dioxol-5-yl-N-(9-ethylamino-2-furan-2-yl-8-methyl-8H-pyrazolo[4,3-e][1,2,4]triazolo[1,5-c]pyrimidin-5-yl)-acetamide] | 
6.50 | 7.59 |  |  |  | COc1ccc(NC(=O)Nc2nc3nn(C)c(N4CCN(C)CC4)c3c3nc(-c4ccco4)nn23)cc1 [Compound 45, 1-[2-Furan-2-yl-8-methyl-9-(4-methyl-piperazin-1-yl)-8H-pyrazolo[4,3-e][1,2,4]triazolo[1,5-c]pyrimidin-5-yl]-3-(4-methoxy-phenyl)-urea] | 
6.59 |  |  | useless |  | COc1ccc(Nc2c3c(nc(N)n4nc(-c5ccco5)nc34)nn2C)cc1 [Compound 39, 2-Furan-2-yl-N9-(4-methoxy-phenyl)-8-methyl-8H-pyrazolo[4,3-e][1,2,4]triazolo[1,5-c]pyrimidine-5,9-diamine] | 

From patent US7064204B2, “Pharmaceutically active compounds having a tricyclic pyrazolotriazolopyrimidine ring structure and methods of use” (King Pharmacueticals Reserch and Development, Inc., priority 2002, dated 2006)
